From US9670227B2, “Thienopyrimidine derivatives, a process for their preparation and pharmaceutical compositions containing them” (LES LABORATOIRES SERVIER, priority 2013, dated 2017)
Where two headings read alike, the source gives them in different places.

Assays:
Mcl-1 protein = Mcl-1 protein (UniProtKB primary accession number: Q07820) (Homo sapiens, UniProt Q07820); experiment: Inhibition of Mcl-1 by fluorescence polarisation, Method 1; format: binding; details: for IC50: read-out: IC50 (M) Mcl-1 FP; for percentage fluorescence polarisation inhibition (Mcl-1 FP), partial inhibitors: test compound at 10 uM
Chain of Mcl-1 protein (Q07820 whole entry): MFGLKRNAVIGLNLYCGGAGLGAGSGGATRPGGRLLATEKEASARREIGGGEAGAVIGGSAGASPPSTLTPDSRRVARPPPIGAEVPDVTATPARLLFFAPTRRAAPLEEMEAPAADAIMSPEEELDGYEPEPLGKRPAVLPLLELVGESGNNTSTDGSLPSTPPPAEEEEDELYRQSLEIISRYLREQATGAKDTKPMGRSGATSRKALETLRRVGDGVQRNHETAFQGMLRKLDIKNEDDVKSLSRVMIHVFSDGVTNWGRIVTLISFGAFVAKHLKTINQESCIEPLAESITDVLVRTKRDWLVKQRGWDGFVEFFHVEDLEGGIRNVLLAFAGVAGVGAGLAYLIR
Summary of the method: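 Binding was measured as fluorescence polarisation of a fluorescein-labelled ligand (1 nM) displaced from Mcl-1 (5 nM), both final. Compounds ran as 11-point series with final DMSO at 5%.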

[1] = system: H929 multiple myeloma tumour line; experiment: In vitro cytotoxicity, Microculture Tetrazolium Assay; format: cell-based; details: read-out: IC50 (μM) MTT H929
Description: The cytotoxicity studies were carried out on the H929 multiple myeloma tumour line.
The cells are distributed onto microplates and exposed to the test compounds for 48 hours.

[2] = fluorescence polarisation test, Method 2 values are underlined in the patent (underlining not visible here)
[3] = Homo sapiens, NCI-H929, 48 h, H929 cells, 48 hours exposure, MTT
[4] = Method 1, or Method 2 where the value is underlined (underlining not visible)
[5] = fluorescence polarisation test, Method 1, or Method 2 where the value is underlined (underlining not visible)

`CCCCCn1nccc1C(C)Oc1ccccc1CC(Oc1ncnc2sc(-c3ccc(F)cc3)c(-c3ccc(OCCN4CCN(C)CC4)c(Cl)c3C)c12)C(=O)O` (single isomer, unassigned) [Example 5, (2R)-2-{[(5Sa)-5-{3-chloro-2-methyl-4-[2-(4-methylpiperazin-1-yl)ethoxy]phenyl}-6-(4-fluorophenyl)thieno[2,3-d]pyrimidin-4-yl]oxy}-3-{2-[(1R or S)-1-(1-pentyl-1H-pyrazol-5-yl)ethoxy]phenyl}propanoic acid] gave an IC50 (Mcl-1 protein; [2]) of 6.2e-09 M and an IC50 [1, 3] of 0.418 µM.

In the case of `CCCCCn1nccc1C(C)Oc1ccccc1CC(Oc1ncnc2sc(-c3ccc(F)cc3)c(-c3ccc(OCCN4CCN(C)CC4)c(Cl)c3C)c12)C(=O)O` (single isomer, unassigned) [Example 6, (2R)-2-{[(5Sa)-5-{3-chloro-2-methyl-4-[2-(4-methylpiperazin-1-yl)ethoxy]phenyl}-6-(4-fluorophenyl)thieno[2,3-d]pyrimidin-4-yl]oxy}-3-{2-[(1S or R)-1-(1-pentyl-1H-pyrazol-5-yl)ethoxy]phenyl}propanoic acid], the IC50 (Mcl-1 protein; [2]) is reported as 4.9e-09 M and the IC50 ([1]; H929 cells, 48 hours exposure, MTT) is reported as 0.332 µM.

For `Cc1c(-c2c(-c3ccc(F)o3)sc3ncnc(OC(Cc4ccccc4OCc4ccnn4CC(F)(F)F)C(=O)O)c23)ccc(OCCN2CCN(C)CC2)c1Cl` [Example 185, (2R)-2-{[(5Sa)-5-{3-chloro-2-methyl-4-[2-(4-methylpiperazin-1-yl)ethoxy]phenyl}-6-(5-fluorofuran-2-yl)thieno[2,3-d]pyrimidin-4-yl]oxy}-3-(2-{[1-(2,2,2-trifluoroethyl)-1H-pyrazol-5-yl]methoxy}phenyl)propanoic acid], the IC50 ([1]; Homo sapiens, NCI-H929, 48 h) was 0.012 µM.

In the case of `Cc1c(-c2c(-c3ccco3)sc3ncnc(OC(Cc4ccccc4OCc4ccnn4CC(F)(F)F)C(=O)O)c23)ccc(OCCN2CCN(C)CC2)c1Cl` [Example 265, (2R)-2-{[(5Sa)-5-{3-chloro-2-methyl-4-[2-(4-methylpiperazin-1-yl)ethoxy]phenyl}-6-(furan-2-yl)thieno[2,3-d]pyrimidin-4-yl]oxy}-3-(2-{[1-(2,2,2-trifluoroethyl)-1H-pyrazol-5-yl]methoxy}phenyl)propanoic acid], the IC50 [1, 3] is reported as 0.016 µM.

In the case of `COc1ccccc1-c1nccc(COc2ccccc2C[C@@H](Oc2ncnc3sc(-c4ccc(F)cc4)c(-c4ccc(OC)c(Cl)c4C)c23)C(=O)OCC(=O)N(C)C)n1` [Example 848, 2-(dimethylamino)-2-oxoethyl (2R)-2-{[(5Sa)-5-(3-chloro-4-methoxy-2-methylphenyl)-6-(4-fluorophenyl)thieno[2,3-d]pyrimidin-4-yl]oxy}-3-(2-{[2-(2-methoxyphenyl)pyrimidin-4-yl]methoxy}phenyl)propanoate], the “percentage fluorescence polarisation inhibition (Mcl-1 FP), partial inhibitors” value (Mcl-1 protein; [4]) is reported as 46.7% @ 10 uM.

In the case of `COc1ccccc1-c1nccc(COc2ccccc2C[C@@H](Oc2ncnc3sc(-c4ccc(F)cc4)c(-c4ccc(OC)c(Cl)c4C)c23)C(=O)OCOC(=O)C(C)(C)C)n1` [Example 849, {[(2R)-2-{[(5Sa)-5-(3-chloro-4-methoxy-2-methylphenyl)-6-(4-fluorophenyl)thieno[2,3-d]pyrimidin-4-yl]oxy}-3-(2-{[2-(2-methoxyphenyl)pyrimidin-4-yl]methoxy}phenyl)propanoyl]oxy}methyl 2,2-dimethylpropanoate], the “percentage fluorescence polarisation inhibition (Mcl-1 FP), partial inhibitors” value (Mcl-1 protein; [4]) is reported as 61.35% @ 10 uM.

In the case of `CCCCCCCCOC(=O)[C@@H](Cc1ccccc1OC)Oc1ncnc2sc(-c3ccc(F)cc3)c(-c3ccc(OCCN4CCN(C)CC4)c(Cl)c3C)c12` [Example 850, octyl (2R)-2-{[(5Sa)-5-{3-chloro-2-methyl-4-[2-(4-methylpiperazin-1-yl)ethoxy]phenyl}-6-(4-fluorophenyl)thieno[2,3-d]pyrimidin-4-yl]oxy}-3-(2-methoxyphenyl)propanoate], the “percentage fluorescence polarisation inhibition (Mcl-1 FP), partial inhibitors” value (Mcl-1 protein; [4]) is reported as 29.4% @ 10 uM.

With `CCCCCCCCOC(=O)[C@@H](Cc1ccccc1OC)Oc1ncnc2sc(-c3ccc(F)cc3)c(-c3ccc(OC)c(Cl)c3C)c12` [Example 851, octyl (2R)-2-{[(5Sa)-5-(3-chloro-4-methoxy-2-methylphenyl)-6-(4-fluorophenyl)thieno[2,3-d]pyrimidin-4-yl]oxy}-3-(2-methoxyphenyl)propanoate] the “percentage fluorescence polarisation inhibition (Mcl-1 FP), partial inhibitors” value (Mcl-1 protein; [4]) was 7.85% @ 10 uM.

`Cc1c(-c2c(-c3ccc(F)cc3)sc3ncnc(OC(Cc4ccccc4OCc4ccnc(-c5ccccc5F)n4)C(=O)OCOC(=O)C(C)(C)C)c23)ccc(OCCN2CCN(C)CC2)c1Cl` [Example 854, {[(2R)-2-{[(5Sa)-5-{3-chloro-2-methyl-4-[2-(4-methylpiperazin-1-yl)ethoxy]phenyl}-6-(4-fluorophenyl)thieno[2,3-d]pyrimidin-4-yl]oxy}-3-(2-{[2-(2-fluorophenyl)pyrimidin-4-yl]methoxy}phenyl)propanoyl]oxy}methyl 2,2-dimethylpropanoate] gave an IC50 (Mcl-1 protein; [5]) of 1.72e-07 M.

In the case of `CCOC(=O)C(Cc1ccccc1OCc1ccnc(-c2ccccc2CO)n1)Oc1ncnc2sc(-c3ccc(F)cc3)c(-c3ccc(OCCN4CCN(C)CC4)c(Cl)c3C)c12` [Example 856, ethyl (2R)-2-{[(5Sa)-5-{3-chloro-2-methyl-4-[2-(4-methylpiperazin-1-yl)ethoxy]phenyl}-6-(4-fluorophenyl)thieno[2,3-d]pyrimidin-4-yl]oxy}-3-[2-({2-[2-(hydroxymethyl)phenyl]pyrimidin-4-yl}methoxy)phenyl]propanoate], the IC50 (Mcl-1 protein; [5]) is reported as 9.79e-07 M.

`CCOC(=O)[C@@H](Cc1ccccc1OCc1ccnc(-c2ccccc2CO)n1)Oc1ncnc2sc(-c3ccc(F)cc3)c(-c3ccc(OCCN(C)C)c(Cl)c3C)c12` [Example 857, ethyl (2R)-2-{[(5Sa)-5-{3-chloro-4-[2-(dimethylamino)ethoxy]-2-methylphenyl}-6-(4-fluorophenyl)thieno[2,3-d]pyrimidin-4-yl]oxy}-3-[2-({2-[2-(hydroxymethyl)phenyl]pyrimidin-4-yl}methoxy)phenyl]propanoate] was tested, and the “percentage fluorescence polarisation inhibition (Mcl-1 FP), partial inhibitors” value (Mcl-1 protein; [4]) was 77.85% @ 10 uM.

With `COc1ccccc1-c1nccc(COc2ccccc2CC(Oc2ncnc3sc(-c4ccc(F)cc4)c(-c4ccc(OCCN5CCN(C)CC5)c(Cl)c4C)c23)C(=O)OC(C)OC(C)=O)n1` [Example 858, 1-(acetyloxy)ethyl (2R)-2-{[(5Sa)-5-{3-chloro-2-methyl-4-[2-(4-methylpiperazin-1-yl)ethoxy]phenyl}-6-(4-fluorophenyl)thieno[2,3-d]pyrimidin-4-yl]oxy}-3-(2-{[2-(2-methoxyphenyl)pyrimidin-4-yl]methoxy}phenyl)propanoate] the IC50 (Mcl-1 protein; [5]) was 2.11e-07 M.

`COc1ccccc1-c1nccc(COc2ccccc2CC(Oc2ncnc3sc(-c4ccc(F)cc4)c(-c4ccc(OCCN5CCN(C)CC5)c(Cl)c4C)c23)C(=O)OC(C)OC(=O)C(C)(C)C)n1` [Example 859, 1-{[(2R)-2-{[(5Sa)-5-{3-chloro-2-methyl-4-[2-(4-methylpiperazin-1-yl)ethoxy]phenyl}-6-(4-fluorophenyl)thieno[2,3-d]pyrimidin-4-yl]oxy}-3-(2-{[2-(2-methoxyphenyl)pyrimidin-4-yl]methoxy}phenyl)propanoyl]oxy}ethyl 2,2-dimethylpropanoate] showed an IC50 (Mcl-1 protein; [5]) of 1.13e-06 M.

With `CCC(=O)OC(C)OC(=O)C(Cc1ccccc1OCc1ccnc(-c2ccccc2OC)n1)Oc1ncnc2sc(-c3ccc(F)cc3)c(-c3ccc(OCCN4CCN(C)CC4)c(Cl)c3C)c12` [Example 860, 1-(propanoyloxy)ethyl (2R)-2-{[(5Sa)-5-{3-chloro-2-methyl-4-[2-(4-methylpiperazin-1-yl)ethoxy]phenyl}-6-(4-fluorophenyl)thieno[2,3-d]pyrimidin-4-yl]oxy}-3-(2-{[2-(2-methoxyphenyl)pyrimidin-4-yl]methoxy}phenyl)propanoate] the IC50 (Mcl-1 protein; [5]) was 2.04e-07 M.

`COc1ccccc1-c1nccc(COc2ccccc2CC(Oc2ncnc3sc(-c4ccc(F)cc4)c(-c4ccc(OCCN5CCN(C)CC5)c(Cl)c4C)c23)C(=O)OC(C)OC(=O)C(C)C)n1` [Example 861, 1-[(2-methylpropanoyl)oxy]ethyl (2R)-2-{[(5Sa)-5-{3-chloro-2-methyl-4-[2-(4-methylpiperazin-1-yl)ethoxy]phenyl}-6-(4-fluorophenyl)thieno[2,3-d]pyrimidin-4-yl]oxy}-3-(2-{[2-(2-methoxyphenyl)pyrimidin-4-yl]methoxy}phenyl)propanoate] gave an IC50 (Mcl-1 protein; [5]) of 5.77e-07 M.

`COCC(=O)OC(C)OC(=O)[C@@H](Cc1ccccc1OCc1ccnc(-c2ccccc2OC)n1)Oc1ncnc2sc(-c3ccc(F)cc3)c(-c3ccc(OCCN4CCN(C)CC4)c(Cl)c3C)c12` (stereo partly drawn) [Example 864, 1-[(methoxyacetyl)oxy]ethyl (2R)-2-{[5-{3-chloro-2-methyl-4-[2-(4-methylpiperazin-1-yl)ethoxy]phenyl}-6-(4-fluorophenyl)thieno[2,3-d]pyrimidin-4-yl]oxy}-3-(2-{[2-(2-methoxyphenyl)pyrimidin-4-yl]methoxy}phenyl)propanoate] showed an IC50 (Mcl-1 protein; [5]) of 2.7e-08 M.

“(2R)-2-{[(5Sa)-5-(3-chloro-2-methylphenyl)-6-ethylthieno[2,3-d]pyrimidin-4-yl]oxy}-3-phenylpropanoic acid and (2S)-2-{[(5Ra)-5-(3-chloro-2-methylphenyl)-6-ethylthieno[2,3-d]pyrimidin-4-yl]oxy}-3-phenylpropanoic acid [Example 449]” was tested, and the IC50 (Mcl-1 protein; fluorescence polarisation, Method 1, or Method 2) was 2.8e-08 M.
